Experimental data taken from US7666883B2, “Antimalarial Baylis-Hillman adducts and a process for the preparation thereof” (Council of Scientific and Industrial Research, priority 2005, dated 2010).
≈ marks a conversion by molar mass, not a printed value.

Key:
Type in all cases: cell-based
[1] = system: Chloroquine sensitive (CQS) P. falciparum strain; assay: Schizont maturation inhibition (SMI), chloroquine sensitive strain; conditions: Plasmodium falciparum, schizont maturation inhibition determined after 24 hr
Protocol: (§1) Parasites were cultured in O (+) erythrocytes in RPMI-1640 media supplemented with 25 mM HEPES buffer and 10% AB (+) serum by candlejar technique.^9 Initial culture was maintained in small vials (2.5 cm dia.) with 10% haematocrit, i.e. 10 μl erythrocytes containing 1.5% ring stage parasite in 100 μl complete media. The culture volume per well for the assay was 100 μl. Parasitamia was determined for each set of culture, number of parasites for the assay were adjusted at 1 to 1.5% by diluting with fresh O (+) RBC. Assay was done in 96 well microtitre flat-bottomed tissue culture plates. Parasite culture was synchronized at ring forms using density gradient method^10 and cultured for 24 h. in the presence of various doses of compounds and chloroquine for their effect in schizont maturation. Test was done in duplicate wells for each dose of the drugs. Control culture was done with RPMI-164 containing 10% AB (+) serum. Growth of the parasites from duplicate wells of each concentration was monitored in JSB stained^11 blood smears by counting number of schizont per 200 asexual parasites. Percent schizont maturation inhibition was calculated by the formula: (1−Nt/Nc)×100 where, Nt and Nc represent the number of schizont in the test and control well respectively.

[2] = system: Chloroquine sensitive (CQS) P. falciparum strain; assay: Total parasite growth inhibition (PGI), chloroquine sensitive strain; conditions: Plasmodium falciparum, total parasite growth inhibition determined after 48 hr
[3] = system: Chloroquine resistant (CQR) P. falciparum strain; assay: Schizont maturation inhibition (SMI), chloroquine resistant strain; conditions: Plasmodium falciparum, schizont maturation inhibition determined after 24 hr
Protocol: as §1

[4] = system: Chloroquine resistant (CQR) P. falciparum strain; assay: Total parasite growth inhibition (PGI), chloroquine resistant strain; conditions: Plasmodium falciparum, total parasite growth inhibition determined after 48 hr

C=C(C#N)C(O)c1cc(C)cnc1Cl (stereo not drawn) [Ia, 2-[(2-Chloro-5-methylpyridine-3-yl)(hydroxy)methyl]acrylonitrile] was tested, and the IC50 [1] was 1.25 µg/mL (≈ 5.99 µM), the IC90 [1] was 25.5 µg/mL (≈ 122 µM) and the IC50 [2] was 1.3 µg/mL (≈ 6.23 µM). It also gave an IC90 [2] of 85 µg/mL (≈ 407 µM), an IC50 [3] of 22.5 µg/mL (≈ 108 µM) and an IC90 [3] of 125 µg/mL (≈ 599 µM). The IC50 [4] was 10.5 µg/mL (≈ 50.3 µM) and the IC90 [4] was 300 µg/mL (≈ 1440 µM).

With C=C(C#N)C(O)c1cc(CC)cnc1Cl (stereo not drawn) [Ib, 2-[(2-Chloro-5-ethylpyridine-3-yl)(hydroxy)methyl]acrylonitrile] the IC50 [1] was 1.8 µg/mL (≈ 8.08 µM), the IC90 [1] was 15.5 µg/mL (≈ 69.6 µM) and the IC50 [2] was 4 µg/mL (≈ 18 µM). The IC90 [2] was 31 µg/mL (≈ 139 µM), the IC50 [3] was 2.5 µg/mL (≈ 11.2 µM) and the IC90 [3] was 6.5 µg/mL (≈ 29.2 µM). It also gave an IC50 [4] of 5.5 µg/mL (≈ 24.7 µM) and an IC90 [4] of 26 µg/mL (≈ 117 µM).

Compound C=C(C#N)C(O)c1cc(-c2ccccc2)cnc1Cl (stereo not drawn) [Ic, 2-[(2-Chloro-5-phenylpyridine-3-yl)(hydroxy)methyl]acrylonitrile] has an IC50 [1] of 3.6 µg/mL (≈ 13.3 µM), an IC90 [1] of 25.5 µg/mL (≈ 94.2 µM) and an IC50 [2] of 8 µg/mL (≈ 29.6 µM). The IC90 [2] was 23 µg/mL (≈ 85 µM), the IC50 [3] was 0.9 µg/mL (≈ 3.32 µM) and the IC90 [3] was 1.5 µg/mL (≈ 5.54 µM). The IC50 [4] was 2.2 µg/mL (≈ 8.13 µM) and the IC90 [4] was 6.75 µg/mL (≈ 24.9 µM).

In the case of C=C(C#N)C(O)c1ccc(C(=O)OC)nc1Cl (stereo not drawn) [Id, Methyl 6-chloro-5-(2-cyano-1-hydroxyallyl) 2-pyridine carboxylate], the IC50 [1] is reported as 3.4 µg/mL (≈ 13.5 µM), the IC90 [1] is reported as 22 µg/mL (≈ 87.1 µM) and the IC50 [2] is reported as 7 µg/mL (≈ 27.7 µM). The IC90 [2] was 29 µg/mL (≈ 115 µM), the IC50 [3] was 5.75 µg/mL (≈ 22.8 µM) and the IC90 [3] was 25.5 µg/mL (≈ 101 µM). For the same compound, the IC50 [4] was 6.75 µg/mL (≈ 26.7 µM) and the IC90 [4] was 29 µg/mL (≈ 115 µM).

In the case of C=C(C(=O)OC)C(O)c1cc(C)cnc1Cl (stereo not drawn) [Ie, Methyl 2-[(2-chloro-5-methylpyridine-3-)(hydroxy)methyl]acrylate], the IC50 [1] is reported as 18 µg/mL (≈ 74.5 µM), the IC90 [1] is reported as 32 µg/mL (≈ 132 µM) and the IC50 [2] is reported as 28.5 µg/mL (≈ 118 µM). It also gave an IC90 [2] of 115 µg/mL (≈ 476 µM), an IC50 [3] of 3.05 µg/mL (≈ 12.6 µM) and an IC90 [3] of 7 µg/mL (≈ 29 µM). The IC50 [4] was 5.75 µg/mL (≈ 23.8 µM) and the IC90 [4] was 27.5 µg/mL (≈ 114 µM).

Compound C=C(C(=O)OC)C(O)c1cc(-c2ccccc2)cnc1Cl (stereo not drawn) [If, Methyl 2-[(2-chloro-5-phenylpyridine-3-yl)(hydroxy)methyl]acrylate] has an IC50 [1] of 45 µg/mL (≈ 148 µM), an IC90 [1] of 125 µg/mL (≈ 412 µM) and an IC50 [2] of 115 µg/mL (≈ 379 µM). The IC90 [2] was 350 µg/mL (≈ 1150 µM), the IC50 [3] was 5 µg/mL (≈ 16.5 µM) and the IC90 [3] was 30 µg/mL (≈ 98.8 µM). The IC50 [4] was 10.8 µg/mL (≈ 35.4 µM) and the IC90 [4] was 77.5 µg/mL (≈ 255 µM).
